Tested on: 885724-159-R-J1-PDC complex spheroid viability
Assay: Anticancer human tumor 885724-159-R-J1-PDC patient-derived pancreatic adenocarcinoma cell line growth inhibition [POLQ]
Details: for IC50: curve of first compound; for viability, T/C: stronger effect = lower value
Method: Multicellular complex tumor spheroid response to Polymerase (POL) inhibitors (novobiocin, ART-558, RP6685) in combination with a variety of drugs and investigational agents in selected tumor cell lines
The POL inhibitors (novobiocin, ART-558, and RP6685) were evaluated both individually and in combination with standard of care and investigational anticancer small molecules within a complex spheroid model of solid tumors. . Complex spheroids include a stromal component modeled by human endothelial cells (HUVEC) and fibroblasts modeled by human mesenchymal stem cells (MSCs). The concentration ranges selected for each drug and investigational agent were based upon clinically achievable concentrations if the clinical Cmax of the agent was known.
Compounds. The drugs and investigational agents: novobiocin (NSC847541), ART-558 (NSC835418), RP-6685 (NSC848927), peposertib (NSC802822), ceralasertib (NSC780249), elimusertib (NSC800525), camonsertib (NSC841442), AZD-1390 (NSC803789), olaparib (NSC753686), talazoparib (NSC767125), rucaparib (NSC756644), sotorasib (NSC818433), MRTX-1133 (NSC836407), SN-38 (NSC673596), topotecan (NSC609699), epotoside (NSC141540), doxorubicin (NSC123127), gemcitabine (NSC613327), 5-fluorouracil (NSC19893), paclitaxel (NSC125973), vemurafenib (NSC761431), MSA-2 (NSC828583), SN-011 (NSC837082), adavosertib (NSC754352), prexasertib (NSC758257), carboplatin (NSC241240) and oxaliplatin (NSC266046), were obtained from the National Cancer Institute (NCI) Developmental Therapeutics Program Chemical Repository (21). The FDA-approved anticancer drug set is available from the Developmental Therapeutics Program at https://dtp.cancer.gov/organization/dscb/obtaining/. […] The stock solutions were prepared in dimethyl sulfoxide (DMSO, Sigma-Aldrich, St. Louis, MO, cat. D2650), except for the platinum compounds which were prepared in saline (Quality Biological, Gaithersburg, MD, cat. 114-055-101), at 800-fold the tested concentration and stored at -70 degrees C prior to their use. All drugs and investigational agents were tested over a range starting from a high concentration at or near the clinical Cmax and decreasing in half-log increments. If the clinical Cmax for an agent had not been determined, the highest concentration tested was 10 microM, except for SN-38, which was tested at a high concentration of 1 microM.
Cell Culture. All cells were maintained in an incubator at 37 degrees C and 5% CO2 with 95% humidity. The PDC lines were cultured according to standard operating procedures established by the NCI PDMR (https://pdmr.cancer.gov). Table 3 of the manuscript, lists the cell lines along with the number of the three cell types plated to form the mct-spheroids and media for tumor cell growth. After thawing, all PDC lines, except 997537-175-T-J1-PDC and 415267-285-R-J2-PDC, were cultured in Matrigel-coated flasks prepared with a working solution of 1X Ham's F-12 nutrient mix, without supplementation (Thermo Fisher Scientific, cat. 11765054), 100 U/mL penicillin-streptomycin (Thermo Fisher Scientific, cat. 15140122), and 2.5% Matrigel (Corning Inc., Corning, NY, cat. 354248) for the first three passages. The two PDC lines 997537-175-T-J1-PDC and 415267-285-R-J2-PDC were cultured on uncoated flasks. The 857933-349-R-J2-PDC line was cultured in 6C/Colon 1B media containing advanced DMEM/F-12 (Thermo Fisher Scientific, cat. 12634028), 10 mM HEPES (Thermo Fisher Scientific, cat. 15630080), 1X GlutaMAX supplement (Thermo Fisher Scientific, cat. 35050061), 0.1 mg/mL primocin (InvivoGen, San Diego, CA, cat. ant-pm-2), 10% defined fetal bovine serum, heat inactivated (HyClone Laboratories Inc., Logan, UT, cat. SH30070.03HI), 50% L-WRN conditioned media (ATCC, cat. CRL-3276), 1.25 mM N-Acetyl-L-cysteine (Sigma-Aldrich, cat. A9165), 10 mM nicotinamide (Sigma-Aldrich, cat. N0636), 1X B-27 supplement (Thermo Fisher Scientific, cat. 17504044), 1X N-2 supplement (Thermo Fisher Scientific, cat. […]

[1] = second compound 0.0316 µM, first compound 0.0316 µM
[2] = second compound 0.0316 µM, first compound 0.1 µM
[3] = second compound 0.0316 µM, first compound 0.316 µM
[4] = second compound 0.0316 µM, first compound 1 µM
[5] = second compound 0.1 µM, first compound 0.0316 µM
[6] = second compound 0.1 µM, first compound 0.1 µM
[7] = second compound 0.1 µM, first compound 0.316 µM
[8] = second compound 0.1 µM, first compound 1 µM
[9] = second compound 0.316 µM, first compound 0.0316 µM
[10] = second compound 0.316 µM, first compound 0.1 µM
[11] = second compound 0.316 µM, first compound 0.316 µM
[12] = second compound 0.316 µM, first compound 1 µM
[13] = second compound 1 µM, first compound 0.0316 µM
[14] = second compound 1 µM, first compound 0.1 µM
[15] = second compound 1 µM, first compound 0.316 µM
[16] = second compound 1 µM, first compound 1 µM
[17] = second compound 3.16 µM, first compound 0.0316 µM
[18] = second compound 3.16 µM, first compound 0.1 µM
[19] = second compound 3.16 µM, first compound 0.316 µM
[20] = second compound 3.16 µM, first compound 1 µM
[21] = second compound 10 µM, first compound 0.0316 µM
[22] = second compound 10 µM, first compound 0.1 µM
[23] = second compound 10 µM, first compound 0.316 µM
[24] = second compound 10 µM, first compound 1 µM
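Further: spheroids exposed to compounds for 7 days.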

**Q.** What does the source list for `CCc1c2c(nc3ccc(O)cc13)-c1cc3c(c(=O)n1C2)COC(=O)[C@]3(O)CC` + Cc1cccc(N(C)C(=O)C2C(O)CCN2c2nc(C)cc(C(F)(F)F)c2C#N)c1?
**A.** IC50 (second compound 0.0316 µM): 0.0963 µM; IC50 (second compound 0.1 µM): 0.0668 µM; IC50 (second compound 0.316 µM): 0.0752 µM; IC50 (second compound 1 µM): 0.0588 µM; IC50 (second compound 3.16 µM): 0.053 µM; IC50 (second compound 10 µM): 0.0568 µM; viability, T/C (second compound 0.0316 µM, first compound 0.00316 µM): 80.9%; viability, T/C (second compound 0.0316 µM, first compound 0.01 µM): 53.6%; viability, T/C [1]: 53.3%; viability, T/C [2]: 52.6%; viability, T/C [3]: 39.9%; viability, T/C [4]: 5.13%; viability, T/C (second compound 0.1 µM, first compound 0.00316 µM): 80.6%; viability, T/C (second compound 0.1 µM, first compound 0.01 µM): 64.4%; viability, T/C [5]: 50.5%; viability, T/C [6]: 49.4%; viability, T/C [7]: 35.3%; viability, T/C [8]: 4.47%; viability, T/C (second compound 0.316 µM, first compound 0.00316 µM): 82.7%; viability, T/C (second compound 0.316 µM, first compound 0.01 µM): 68.3%; viability, T/C [9]: 55.5%; viability, T/C [10]: 47.4%; viability, T/C [11]: 34.5%; viability, T/C [12]: 4.66%; viability, T/C (second compound 1 µM, first compound 0.00316 µM): 79.6%; viability, T/C (second compound 1 µM, first compound 0.01 µM): 65.8%; viability, T/C [13]: 51.8%; viability, T/C [14]: 46.8%; viability, T/C [15]: 34.5%; viability, T/C [16]: 4.77%; viability, T/C (second compound 3.16 µM, first compound 0.00316 µM): 98%; viability, T/C (second compound 3.16 µM, first compound 0.01 µM): 62.3%; viability, T/C [17]: 51.7%; viability, T/C [18]: 50.7%; viability, T/C [19]: 28.6%; viability, T/C [20]: 4.41%; viability, T/C (second compound 10 µM, first compound 0.00316 µM): 80.2%; viability, T/C (second compound 10 µM, first compound 0.01 µM): 64.9%; viability, T/C [21]: 52.2%; viability, T/C [22]: 46.4%; viability, T/C [23]: 30.1%; viability, T/C [24]: 4.59%

**Q.** For `CNCc1ccc(-c2[nH]c3cc(F)cc4c3c2CCNC4=O)cc1` + Cc1cccc(N(C)C(=O)C2C(O)CCN2c2nc(C)cc(C(F)(F)F)c2C#N)c1, which IC50 (second compound 0.0316 µM) is on record?
**A.** > 10 µM

**Q.** And the IC50 (second compound 0.1 µM)?
**A.** > 10 µM

**Q.** And the IC50 (second compound 0.316 µM)?
**A.** > 10 µM

**Q.** What about the IC50 (second compound 1 µM) of the same compound?
**A.** > 10 µM

**Q.** And the IC50 (second compound 3.16 µM)?
**A.** > 10 µM

**Q.** What about the IC50 (second compound 10 µM) of the same compound?
**A.** > 10 µM

**Q.** And the viability, T/C [1]?
**A.** 92.2%

**Q.** What about the viability, T/C [2] of the same compound?
**A.** 102%

**Q.** What about the viability, T/C [3] of the same compound?
**A.** 98.2%

**Q.** What about the viability, T/C [4] of the same compound?
**A.** 89.2%

**Q.** What about the viability, T/C (second compound 0.0316 µM, first compound 3.16 µM) of the same compound?
**A.** 90.3%

**Q.** What about the viability, T/C (second compound 0.0316 µM, first compound 10 µM) of the same compound?
**A.** 83.9%

**Q.** And the viability, T/C [5]?
**A.** 104%

**Q.** And the viability, T/C [6]?
**A.** 104%

**Q.** And the viability, T/C [7]?
**A.** 91.1%

**Q.** And the viability, T/C [8]?
**A.** 92.7%

**Q.** And the viability, T/C (second compound 0.1 µM, first compound 3.16 µM)?
**A.** 93.3%

**Q.** And the viability, T/C (second compound 0.1 µM, first compound 10 µM)?
**A.** 83.2%

**Q.** What about the viability, T/C [9] of the same compound?
**A.** 104%

**Q.** And the viability, T/C [10]?
**A.** 94.1%

**Q.** What about the viability, T/C [11] of the same compound?
**A.** 102%

**Q.** What about the viability, T/C [12] of the same compound?
**A.** 87.9%

**Q.** What about the viability, T/C (second compound 0.316 µM, first compound 3.16 µM) of the same compound?
**A.** 92%

**Q.** And the viability, T/C (second compound 0.316 µM, first compound 10 µM)?
**A.** 88.5%

**Q.** What about the viability, T/C [13] of the same compound?
**A.** 92.2%

**Q.** What about the viability, T/C [14] of the same compound?
**A.** 89.5%

**Q.** What about the viability, T/C [15] of the same compound?
**A.** 88.7%

**Q.** And the viability, T/C [16]?
**A.** 113%

**Q.** And the viability, T/C (second compound 1 µM, first compound 3.16 µM)?
**A.** 91%

**Q.** What about the viability, T/C (second compound 1 µM, first compound 10 µM) of the same compound?
**A.** 86.3%

**Q.** What about the viability, T/C [17] of the same compound?
**A.** 102%

**Q.** What about the viability, T/C [18] of the same compound?
**A.** 90.8%

**Q.** And the viability, T/C [19]?
**A.** 97.5%

**Q.** What about the viability, T/C [20] of the same compound?
**A.** 96.3%

**Q.** What about the viability, T/C (second compound 3.16 µM, first compound 3.16 µM) of the same compound?
**A.** 92.5%

**Q.** What about the viability, T/C (second compound 3.16 µM, first compound 10 µM) of the same compound?
**A.** 85.2%

**Q.** What about the viability, T/C [21] of the same compound?
**A.** 97%

**Q.** What about the viability, T/C [22] of the same compound?
**A.** 103%

**Q.** What about the viability, T/C [23] of the same compound?
**A.** 85.2%

**Q.** What about the viability, T/C [24] of the same compound?
**A.** 88%

**Q.** What about the viability, T/C (second compound 10 µM, first compound 3.16 µM) of the same compound?
**A.** 86.1%

**Q.** What about the viability, T/C (second compound 10 µM, first compound 10 µM) of the same compound?
**A.** 88.5%

— PubChem BioAssay AID1963832 (Molecular Pharmacology Branch, DTP, NCI, 2024)
